Converted amounts (≈) assume the structure as drawn. Counter-ions that a name gives are not always drawn.
Assays:
p388 murine leukemia = assay: In vivo activity against p388 murine leukemia in an acute mouse model; conditions: for AWC (average weight change per mouse): before treatment to day five
Protocol: CDF1 mice of both sexes weighing between 16 and 25 gm. were used, with a 2 gm. weight range and same sex and source used per experiment. BDF1 mice also were used with the same weight, sex and source parameters. Control and test animals were injected interperitoneally with suspension of 1×10^6 p388 murine leukemia cells (0.5 mL dose) on day 0. Groups of 4-6 mice were used for each dosage amount they were treated with 5 doses on day one. A group of ten saline treated control mice was included in each set of experiments. A 30 day protocol was employed with mean survival time in days being determined for each group of mice with the number of survivors at the end of the 30 day period being noted. The mice were weighed before treatment and again on day five. The values listed for average weight change (AWC) is the average weight change per mouse at the specified dose. The change in weight was taken as a measure of drug toxicity. A loss in weight of up to 2 grams is not considered excessive. The results were determined in terms of % T/C which is the ratio of the mean survival time of the treated group to the mean survival time of the saline treated group times 100.

[1] = test system: human colon carcinoma cell line (Moser); assay: In vitro microdilution inhibition, Moser; format: cell-based; conditions: 72 hours, 50% of cells killed
Description: (§1) As shown in Table III the compounds of the present invention exert an in vitro antitumor effect. The following cells lines were employed: human lung (A549); resistant human lung with low topo II activity (A549-VP); murine melanoma (B16); human colon tumor (HCT116); human colon tumor with elevated p170 levels (HCTVM); human colon tumor with low topo II activity (HCTVP); and another human colon carcinoma cell line (Moser). In the Table, the designation "NT" indicates the compound was not tested against the specified cell line. The cell lines were maintained in continuous culture at 37°, 5% CO2 and high humidity. Cells were harvested in log phase growth and suspended at concentration of 25,000 cells/mL. A […] aliquot was then added to each well (i.e., 3,750 cells per well) of a 96-well flat bottom plate and the cells were allowed to attach over a 24 hour period. After this 24 hour incubation, a 50 μL sample of the specified compound was added to the first (top) well of each column, and the remaining wells of each column serially diluted, 1:4, and allowed to incubate for 72 hours at 37° C., 5% CO2 and high humidity. Following incubation, 50 μL of freshly prepared stain solution was added to each well. After a 3 hour incubation at room temperature, absorbance was read at 450 nm on a microplate reader to determine the compound concentration at which 50% of the cells were killed, such concentration referred to as the "IC50 ".

murine melanoma (B16) = assay: In vitro microdilution inhibition, B16; format: cell-based; conditions: Mus musculus; B16, 72 hours, 50% of cells killed
Description: as §1

[2] = test system: human colon tumor (HCT116); assay: In vitro microdilution inhibition, HCT116; format: cell-based; conditions: HCT-116, 72 hours, 50% of cells killed
Description: as §1

[3] = test system: human colon tumor with low topo II activity (HCTVP); assay: In vitro microdilution inhibition, HCTVP; format: cell-based; conditions: 72 hours, 50% of cells killed
Description: as §1

human lung (A549) = assay: In vitro microdilution inhibition, human lung A549; format: cell-based; conditions: A549, 72 hours, 50% of cells killed
Description: as §1

[4] = test system: human colon tumor with elevated p170 levels (HCTVM); assay: In vitro microdilution inhibition, HCTVM; format: cell-based; conditions: 72 hours, 50% of cells killed
Description: as §1

[5] = test system: resistant human lung with low topo II activity (A549-VP); assay: In vitro microdilution inhibition, resistant human lung A549-VP; format: cell-based; conditions: A549VP, 72 hours, 50% of cells killed
Description: as §1

[6] = Mus musculus, P388, 720 h, CDF1 (mixed sex), 5 mg/kg, read-out: % T/C (mean survival time treated/control)
[7] = Mus musculus, P388, 720 h, CDF1 (mixed sex), 15 mg/kg, read-out: % T/C (mean survival time treated/control)
[8] = Mus musculus, P388, 720 h, CDF1 (female only), 4 mg/kg, read-out: % T/C (mean survival time treated/control)
[9] = Mus musculus, P388, 720 h, CDF1 (female only), 12 mg/kg, read-out: % T/C (mean survival time treated/control)
[10] = Mus musculus, P388, 720 h, CDF1 (female only), 36 mg/kg, read-out: % T/C (mean survival time treated/control)

Row | Structure (SMILES) | IC50 (murine melanoma (B16)) [µg/mL] | IC50 [2] [µg/mL] | IC50 [3] [µg/mL] | IC50 (human lung (A549)) [µg/mL] | IC50 [4] [µg/mL] | IC50 [5] [µg/mL] | also measured
1 | COCOc1cccc2c1C1(CC2)C(=O)c2c(O)c3c(c(O)c2C1=O)C(=O)C=CC3=O [Example 2, 2',3'-Dihydro-7'-(methoxymethoxy)-1H-indene-1'-spiro-2-[4,9-dihydroxy-2H-benz[f]indene-1,3,5,8-tetrone]] | 0.14 (≈ 0.333 µM) | 0.25 (≈ 0.595 µM) | 0.29 (≈ 0.69 µM) | 0.36 (≈ 0.856 µM) |  |  | AWC (average weight change per mouse) (p388 murine leukemia; CDF1 (mixed sex), 5 mg/kg): -0.1; AWC (average weight change per mouse) (p388 murine leukemia; CDF1 (mixed sex), 15 mg/kg): -1.3; % T/C (mean survival time treated/control) (p388 murine leukemia; CDF1 (mixed sex), 45 mg/kg): Toxic; response vs control in vivo at 5 mg/kg (p388 murine leukemia; [6]): 105%; response vs control in vivo at 15 mg/kg (p388 murine leukemia; [7]): 110%; IC50 [1]: 1.07 µg/mL (≈ 2.55 µM)
2 | O=C1C=CC(=O)c2c(O)c3c(c(O)c21)C(=O)C1(CCc2cccc(O)c21)C3=O [Example 3, 2',3'-Dihydro-7'-hydroxy-1H-indene-1'-spiro-2-[4,9-dihydroxy-benz[f]indene-1,3,5,8-tetrone]] | 0.88 (≈ 2.34 µM) | 1.13 (≈ 3 µM) | 0.86 (≈ 2.29 µM) | 1.14 (≈ 3.03 µM) |  |  | IC50 [1]: 3.07 µg/mL (≈ 8.16 µM)
3 | CCOC(OCC)c1cc2cc3c(c(OCOC)c2c(OC)n1)C1(CC3)C(=O)c2c(O)c3c(c(O)c2C1=O)C(=O)C=CC3=O [Example 9, 6',7'-Dihydro-1-methoxy-9'-(methoxymethoxy-3-(diethoxymethyl)-spiro[2H-benz[f]indene-2,8'-8H]cyclopent[g]isoquinoline]-1,3,5,8-tetrone] | 0.78 (≈ 1.29 µM) | 0.71 (≈ 1.18 µM) | 2.38 (≈ 3.94 µM) | 4.42 (≈ 7.32 µM) |  |  | IC50 [1]: 4.4 µg/mL (≈ 7.29 µM)
4 | CCNC1=CC(=O)c2c(O)c3c(c(O)c2C1=O)C(=O)C1(CCc2cccc(O)c21)C3=O (stereo not shown) [Example 15, 2',3'-Dihydro-6-ethylamino-7'-hydroxy-1H-indene-1'-spiro-2-[4,9-dihydroxy-2H-benz[f]-indene-1,3,5,8-tetrone]] | 0.03 (≈ 0.0715 µM) | 0.03 (≈ 0.0715 µM) | 0.05 (≈ 0.119 µM) | < 0.03 | 0.03 (≈ 0.0715 µM) | 0.05 (≈ 0.119 µM) | AWC (average weight change per mouse) (p388 murine leukemia; CDF1 (mixed sex), 5 mg/kg): -0.1; AWC (average weight change per mouse) (p388 murine leukemia; CDF1 (mixed sex), 15 mg/kg): -0.2; % T/C (mean survival time treated/control) (p388 murine leukemia; CDF1 (mixed sex), 45 mg/kg): Toxic; response vs control in vivo at 5 mg/kg (p388 murine leukemia; [6]): 100%; response vs control in vivo at 15 mg/kg (p388 murine leukemia; [7]): 115%
5 | COCOc1cccc2c1C1(CC2)C(=O)c2c(O)c3c(c(O)c2C1=O)C(=O)C(NCCO)=CC3=O (stereo not shown) [Example 16, 2',3'-Dihydro-7'-(methoxymethoxy)-1H-indene-1'-spiro-[4,9-dihydroxy-6-(2-hydroxyethylamino)-2H-benz[f]indene-1,3,5,8-tetrone]] | 0.03 (≈ 0.0626 µM) | 0.05 (≈ 0.104 µM) | 0.04 (≈ 0.0834 µM) | < 0.03 | 0.06 (≈ 0.125 µM) | 0.04 (≈ 0.0834 µM) | AWC (average weight change per mouse) (p388 murine leukemia; CDF1 (female only), 3.3 mg/kg): -0.1; AWC (average weight change per mouse) (p388 murine leukemia; CDF1 (female only), 10 mg/kg): -1.1; AWC (average weight change per mouse) (p388 murine leukemia; CDF1 (female only), 30 mg/kg): -2.6; response vs control in vivo at 3.3 mg/kg (p388 murine leukemia; Mus musculus, P388, 720 h, CDF1 (female only), 3.3 mg/kg, read-out: % T/C (mean survival time treated/control)): 95%; response vs control in vivo at 10 mg/kg (p388 murine leukemia; Mus musculus, P388, 720 h, CDF1 (female only), 10 mg/kg, read-out: % T/C (mean survival time treated/control)): 95%; response vs control in vivo at 30 mg/kg (p388 murine leukemia; Mus musculus, P388, 720 h, CDF1 (female only), 30 mg/kg, read-out: % T/C (mean survival time treated/control)): 130%
6 | CCCCCc1cc2cc3c(c(O)c2c(=O)[nH]1)C1(CC3)C(=O)c2c(O)c3c(c(O)c2C1=O)C(=O)C(NCC)=CC3=O (stereo not shown) [Example 23, 2',6'7'-trihydro-4,9,9'-trihydroxy-3'-(n-pentyl)-6-ethylamino-spiro[2H-benz[f]-indene-2,8'-[8H]cyclopent[g]-isoquinoline]-1,1',3,5,8-pentone] | 0.39 (≈ 0.701 µM) | 0.28 (≈ 0.503 µM) | 0.1 (≈ 0.18 µM) | 0.14 (≈ 0.252 µM) | 0.22 (≈ 0.395 µM) | 0.1 (≈ 0.18 µM) | AWC (average weight change per mouse) (p388 murine leukemia; CDF1 (female only), 4 mg/kg): 1.8; AWC (average weight change per mouse) (p388 murine leukemia; CDF1 (female only), 12 mg/kg): 1.7; AWC (average weight change per mouse) (p388 murine leukemia; CDF1 (female only), 36 mg/kg): 0.7; response vs control in vivo at 4 mg/kg (p388 murine leukemia; [8]): 100%; response vs control in vivo at 12 mg/kg (p388 murine leukemia; [9]): 95%; response vs control in vivo at 36 mg/kg (p388 murine leukemia; [10]): 100%
7 | CN(C)CCNC1=CC(=O)c2c(O)c3c(c(O)c2C1=O)C(=O)C1(CCc2cccc(O)c21)C3=O (stereo not shown) [Example 24, hydrochloride] | 0.4 | 0.2 | 1.1 | 0.5 | 0.7 | 1.4 | AWC (average weight change per mouse) (p388 murine leukemia; CDF1 (mixed sex), 5 mg/kg): -0.3; AWC (average weight change per mouse) (p388 murine leukemia; CDF1 (mixed sex), 15 mg/kg): -0.3; AWC (average weight change per mouse) (p388 murine leukemia; CDF1 (mixed sex), 45 mg/kg): -0.9; response vs control in vivo at 5 mg/kg (p388 murine leukemia; [6]): 110%; response vs control in vivo at 15 mg/kg (p388 murine leukemia; [7]): 110%; response vs control in vivo at 45 mg/kg (p388 murine leukemia; Mus musculus, P388, 720 h, CDF1 (mixed sex), 45 mg/kg, read-out: % T/C (mean survival time treated/control)): 120%
8 | CCCCCc1cc2cc3c(c(O)c2c(=O)[nH]1)C1(CC3)C(=O)c2c(O)c3c(c(O)c2C1=O)C(=O)C(NCCN(C)C)=CC3=O (stereo not shown) [Example 25, hydrochloride] | 0.14 | 0.27 | 0.13 | 0.14 | 0.22 | 0.16 | AWC (average weight change per mouse) (p388 murine leukemia; CDF1 (female only), 4 mg/kg): 0.9; AWC (average weight change per mouse) (p388 murine leukemia; CDF1 (female only), 12 mg/kg): -0.7; AWC (average weight change per mouse) (p388 murine leukemia; CDF1 (female only), 36 mg/kg): -1.6; response vs control in vivo at 4 mg/kg (p388 murine leukemia; [8]): 125%; response vs control in vivo at 12 mg/kg (p388 murine leukemia; [9]): 105%; response vs control in vivo at 36 mg/kg (p388 murine leukemia; [10]): 120%
9 | COCOc1cccc2c1C1(CC2)C(=O)c2c(O)c3c(c(O)c2C1=O)C(=O)C(NCC(=O)O)=CC3=O (stereo not shown) [Example 29, 2',3'-Dihydro-7'-(methoxymethoxy)-1H-indene-1'-spiro-2-[6-((carboxymethyl)amino)-4,9-dihydroxy-2H-benz[f]indene-1,3,5,8-tetrone]sodium salt] | 0.8 | 0.9 | 1 | 1.2 | 1 | 1.6 | 
10 | CCSC1=C(SCC)C(=O)c2c(O)c3c(c(O)c2C1=O)C(=O)C1(CCc2cccc(OCOC)c21)C3=O [Example 30] | 1.8 (≈ 3.33 µM) | 1.2 (≈ 2.22 µM) | 2.2 (≈ 4.07 µM) | 7 (≈ 12.9 µM) | 3 (≈ 5.55 µM) | > 16 | 
11 | COCOc1cccc2c1C1(CC2)C(=O)c2c(O)c3c(c(O)c2C1=O)C(=O)C(Sc1ccccc1)=C(Sc1ccccc1)C3=O [Example 31, 2',3'-Dihydro-7'-(methoxymethoxy)-1H-indene-1'-spiro-2-[6,7-di(phenylmercapto)-4,9-dihydroxy-2H-benz[f]indene-I,3,5,8-tetrone]] | > 16 | > 16 | > 16 | > 16 | > 16 | > 16 | 
12 | O=C1C(Sc2ccccc2)=C(Sc2ccccc2)C(=O)c2c(O)c3c(c(O)c21)C(=O)C1(CCc2cccc(O)c21)C3=O [Example 32, 2',3'-Dihydro-7'-hydroxy-1H-indene-1'-spiro-2-[4,9-dihydroxy-6,7-di(phenylmercapto)-2H-benz[f]indene-1,3,5,8-tetrone]] | > 16 | > 16 | > 16 | > 16 | > 16 | > 16 | 
